Laboratory results: patent publication US10259824B2, “Complement C3d-binding compounds” (The Regents of the University of California, priority 2015, dated 2019)

Columns and labels:
C3d [1] = target: T1, C3d (Homo sapiens, UniProt P01024); test: Microscale thermophoresis direct binding; conditions: 10 nM NT647-labeled C3d, MST buffer with 5% DMSO
T1 construct: Further cleavage events yield C3d (the terminal cleavage product of C3); purchased Complement Technology, Inc
Protocol: Microscale thermophoresis. Direct binding of molecules was assayed using a Monolith NT.115 (NanoTemper Technologies GmbH). Purified C3d (Complement Technology, Inc.) was labeled with NT647 dye using the kit from NanoTemper Technologies, and dissolved to 10 nM in MST buffer (50 mM Tris-HCl, 150 mM NaCl, 10 mM MgCl2, 0.05% Tween 20) containing 5% DMSO. A dilution series of each molecule was prepared in MST buffer containing 5% DMSO, and preincubated with 10 nM NT647-labeled C3d for 10 minutes at room temperature in the dark. Samples were loaded into hydrophilic capillary tubes, and measurements were obtained. For each molecule, reported KD values and binding curves represent results from three independent experiments.
Experimental evaluation of C3d binding. In order to validate the hits from vHTS, binding of 49 selected compounds were measured using microscale thermophoresis. All molecules were tested in a concentration-dependent manner; starting at a concentration of 200 μM (most molecules were poorly soluble in aqueous solution above this concentration). Ten molecules were identified that bound to C3d, with binding affinities (KD) ranging between 25-500 μM. The molecular structures and binding curves for top molecules are shown in FIG. 6, and other binding compounds are shown in FIG. 9.
Microscale Thermophoresis: Direct binding of a small number of selected molecules was tested using microscale thermophoresis. […] We used Efb, a protein secreted from Staphylococcus aureus that binds to C3d, as a positive control for binding (KD=3 nM) (see FIG. 11).

[2] = Absorption and fluorescence spectroscopy / fluorescence quantum yield; type: physicochemical; conditions: for Emission Peak / Excitation Peak / Quantum Yield: acetonitrile
Protocol: Absorption and fluorescence spectroscopy. Stock solutions of C3d-binding compounds (in DMSO) were diluted in spectroscopic grade acetonitrile (Fisher Scientific). The concentration of each sample was adjusted such that the absorption at the excitation wavelength was below 0.2, after correcting with blank acetonitrile solutions containing the same concentration of DMSO as the measured samples. The UV/visible absorption spectra (260-700 nm) were recorded on a JASCO V-670 spectrophotometer (Tokyo, Japan), using quartz cuvettes (1.0 cm path length, 3.0 ml total volume). The emission spectra were collected with a FluoroLog-3 spectrofluorometer (Horiba-Jobin-Yvon, Edison, N.J., USA). All samples were purged with argon prior to the measurements and all measurements were performed at room temperature.
Fluorescence quantum yield measurements. Fluorescence quantum yield values for the small molecules were calculated using one or more standard quantum yield fluorophores. Values were calculated according to Eq. 1.
where R and S subscripts denote reference compound and sample, respectively, Φfl is quantum yield, In is the total integrated fluorescence spectrum intensity obtained from integration of the emission spectra, An is sample absorbance at the excitation wavelength, and nn is the refractive index of the solvent. Reference compounds used for calculation included naphthalene (ΦR=0.23 for EtOH), anthracene (ΦR=0.27 for EtOH), and coumarin 1 (ΦR=0.73 for EtOH). Standard molecule quantum yield measurements were performed in acetonitrile, and solvent-dependent measurements were performed in spectroscopic grade methanol, ethanol, 1-propanol, 1-butanol, ethylene glycol, glycerol, and phosphate buffered saline.
To test the fluorescence dependence on the media viscosity, a protic media was used, i.e., an aqueous buffer and six alcohols with widely varying viscosities.

C3d-CR2 interaction = target: T2, C3d-CR2 interaction (Homo sapiens, UniProt P01024); test: Competitive binding ELISA, C3d-CR2; conditions: plates coated with CR2
T2 construct: Further cleavage events yield C3d (the terminal cleavage product of C3)
Protocol: (§1) Competitive binding ELISA: 50 molecules selected from virtual screening were tested for competitive binding against C3d and its interactions with endogenous protein CR2 and bacterial protein Ecb (homolog to Efb) from Staphylococcus aureus. ELISA plates were coated with CR2 or Ecb for 1 hour at 37° C. Plates were washed and blocked, then incubated with serial dilutions of C3d, with and without test molecules. Plates were incubated with a mouse monoclonal antibody against C3d, followed by a horseradish peroxidase-labeled anti-mouse IgG antibody. The amount of labeled antibody (and in turn, C3d) bound was detected via reaction with a substrate solution, followed by spectrophotometric measurement.

C3d-Ecb interaction = target: T3, C3d-Ecb interaction (Homo sapiens, UniProt P01024); test: Competitive binding ELISA, C3d-Ecb; set-up: species or system Staphylococcus aureus; conditions: plates coated with Ecb
T3 construct: Further cleavage events yield C3d (the terminal cleavage product of C3)
Protocol: as §1

C3d [3] = target: T1, C3d; test: Fluorescence of molecules in the presence of C3d; conditions: subsaturating concentrations of C3d
Protocol: The fluorescence properties of topperforming molecules in the presence of C3d were also evaluated. Often, when small molecule fluorophores bind to their targets, fluorescence may be quenched, an undesirable property for potential diagnostic molecules. […] Remarkably, Mol4 underwent drastic fluorescence enhancement in the presence of C3d, with up to 5-fold higher fluorescence at subsaturating concentrations of C3d (FIG. 14).

[4] = for EtOH; standard fluorophore; cited from earlier work
[5] = aqueous buffer and six alcohols

T2 sequence (P01024 1002-1303 limits assumed): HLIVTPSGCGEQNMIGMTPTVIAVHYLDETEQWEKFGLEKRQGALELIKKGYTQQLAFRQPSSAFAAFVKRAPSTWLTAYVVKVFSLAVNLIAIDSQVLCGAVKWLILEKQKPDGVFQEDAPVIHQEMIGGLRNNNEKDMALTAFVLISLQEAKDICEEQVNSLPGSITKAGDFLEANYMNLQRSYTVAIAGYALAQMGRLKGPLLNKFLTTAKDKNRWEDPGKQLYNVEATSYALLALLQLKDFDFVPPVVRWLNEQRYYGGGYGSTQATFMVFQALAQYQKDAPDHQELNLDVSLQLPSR
T1 sequence (P01024 1002-1303 limits assumed): as above
T3 sequence (P01024 1002-1303 limits assumed): as above

SMILES	Kd (C3d [1]) [µM]	Emission Peak [2] [nm]	Excitation Peak [2]	Quantum Yield [2]	further results
O=C(Nc1cccc(-c2cc3ccccc3[nH]2)c1)C1CCN(C(=O)C2CC23CCC3)CC1 (stereo not shown) [Mol 4]	29 ± 8	380	315 nm	0.560	
O=C(Nc1nc2ccccc2[nH]1)c1ccc(CNS(=O)(=O)c2ccc(F)c(F)c2F)cc1 [Mol 11]	45 ± 13	405	310 nm	0.001	
Cc1c(-c2ccc(F)cc2)[nH]c2ccc(CNC(=O)c3cc(=O)[nH]c(=O)[nH]3)cc12 [Mol 16]	27 ± 5	385	310 nm	0.002	
C[C@@H](Oc1ccc2[nH]c3ccccc3c(=O)c2c1)C(=O)NC(=O)NC12CC3CC(CC(C3)C1)C2 [Mol 17]	116 ± 41	500	390/405	0.984	
CC1Sc2ccc(C(=O)NNC(=O)c3cc(-c4ccco4)nc4ccccc34)cc2NC1=O (stereo not shown) [Mol 22]	183 ± 81	455	355 nm	0.044	
Cc1ccc(NC(=O)CSc2nnc3ccc(C(=O)Nc4cccc(F)c4)cn23)c(C)c1 [Mol 35]	417 ± 171	460	275 nm	0.001	inhibition of C3d-CR2 interaction (C3d-CR2 interaction): inhibit; inhibition of C3d-Ecb interaction (C3d-Ecb interaction): inhibit
O=C(Cc1cccc(F)c1)Nc1ccc(N2CCC(NCc3ccc4ncccc4c3)CC2)cc1 [Mol 36]	132 ± 28	425	320 nm	0.017	
O=C(NC1CCCc2ccccc21)c1ccc(CN2CCN(CC=Cc3ccccc3)CC2)[nH]c1=O (stereo not shown) [Mol 42]	45 ± 15	390	335 nm	0.011	
O=C(Nc1ccc(C(=O)N2CCN(Cc3nc4sc5c(c4c(=O)[nH]3)CCCC5)CC2)s1)C1CC1 [Mol 50]	77				
O=C(Nc1cccc(-c2cc3ccccc3[nH]2)c1)C1CCN(C(=O)C2CC23CCC3)CC1 (stereo not shown) [Mol B4]					fluorescence enhancement in the presence of C3d (C3d [3]): up to 5 fold
Cc1c(-c2ccc(F)cc2)[nH]c2ccc(CNC(=O)c3cc(=O)[nH]c(=O)[nH]3)cc12 [Mol B16]					dependence of Φfl on solvent polarity [2, 5]: does not exhibit any dependence on solvent polarity; emission quantum yield at high media viscosity ([2]; media viscosity about 1,000 cP, protic media): ~0.015; emission quantum yield at low media viscosity ([2]; media viscosity about <1 cP, protic media): about 0.002
C[C@@H](Oc1ccc2[nH]c3ccccc3c(=O)c2c1)C(=O)NC(=O)NC12CC3CC(CC(C3)C1)C2 [Mol B17]					Quantum Yield ([2]; listed as Mol17): close to unity
CC1Sc2ccc(C(=O)NNC(=O)c3cc(-c4ccco4)nc4ccccc34)cc2NC1=O (stereo not shown) [Mol B22]					inhibition of C3d-CR2 interaction (C3d-CR2 interaction): inhibit; inhibition of C3d-Ecb interaction (C3d-Ecb interaction): inhibit
O=C(NC1CCCc2ccccc21)c1ccc(CN2CCN(CC=Cc3ccccc3)CC2)[nH]c1=O (stereo not shown) [Mol B42]					dependence of Φfl on media viscosity [2, 5]: does not manifest viscosity dependence; dependence of Φfl on solvent polarity [2, 5]: about an order of magnitude increase in Φfl
Cc1ccc(NC(=O)Cn2nnc(C(=O)Nc3ccc(C)cc3C)c2N)c(C)c1 [Mol B47]					inhibition of C3d-CR2 interaction (C3d-CR2 interaction): only inhibits the C3d-Ecb interaction; inhibition of C3d-Ecb interaction (C3d-Ecb interaction): inhibits
c1ccc2cc3ccccc3cc2c1 [anthracene]					reference quantum yield ΦR [4]: 0.27
CCN(CC)c1ccc2c(C)cc(=O)oc2c1 [coumarin 1]					reference quantum yield ΦR [4]: 0.73
c1ccc2ccccc2c1 [naphthalene]					reference quantum yield ΦR [4]: 0.23
